Results taken from patent US20250281497A1, “FUSED AMINO PYRIMIDINE COMPOUNDS FOR TREATMENT OF SEIZURE DISORDERS” (Ovid Therapeutics Inc., priority 2024, published 2025).
pEC50: −log10 of the molar value.

Tests used:
[1] = target: T1, KCC4 (Homo sapiens, UniProt Q9Y666); experiment: Tl+ assay, HEK-293 cells expressing KCC4; assay type: cell-based; details: read-out: concentration at which effects on KCC4 were seen (EC50 chart FIG. 1G)
T1 construct: expressed in transfected cells; host or cells: HEK-293
T1 sequence (Q9Y666 1-1083): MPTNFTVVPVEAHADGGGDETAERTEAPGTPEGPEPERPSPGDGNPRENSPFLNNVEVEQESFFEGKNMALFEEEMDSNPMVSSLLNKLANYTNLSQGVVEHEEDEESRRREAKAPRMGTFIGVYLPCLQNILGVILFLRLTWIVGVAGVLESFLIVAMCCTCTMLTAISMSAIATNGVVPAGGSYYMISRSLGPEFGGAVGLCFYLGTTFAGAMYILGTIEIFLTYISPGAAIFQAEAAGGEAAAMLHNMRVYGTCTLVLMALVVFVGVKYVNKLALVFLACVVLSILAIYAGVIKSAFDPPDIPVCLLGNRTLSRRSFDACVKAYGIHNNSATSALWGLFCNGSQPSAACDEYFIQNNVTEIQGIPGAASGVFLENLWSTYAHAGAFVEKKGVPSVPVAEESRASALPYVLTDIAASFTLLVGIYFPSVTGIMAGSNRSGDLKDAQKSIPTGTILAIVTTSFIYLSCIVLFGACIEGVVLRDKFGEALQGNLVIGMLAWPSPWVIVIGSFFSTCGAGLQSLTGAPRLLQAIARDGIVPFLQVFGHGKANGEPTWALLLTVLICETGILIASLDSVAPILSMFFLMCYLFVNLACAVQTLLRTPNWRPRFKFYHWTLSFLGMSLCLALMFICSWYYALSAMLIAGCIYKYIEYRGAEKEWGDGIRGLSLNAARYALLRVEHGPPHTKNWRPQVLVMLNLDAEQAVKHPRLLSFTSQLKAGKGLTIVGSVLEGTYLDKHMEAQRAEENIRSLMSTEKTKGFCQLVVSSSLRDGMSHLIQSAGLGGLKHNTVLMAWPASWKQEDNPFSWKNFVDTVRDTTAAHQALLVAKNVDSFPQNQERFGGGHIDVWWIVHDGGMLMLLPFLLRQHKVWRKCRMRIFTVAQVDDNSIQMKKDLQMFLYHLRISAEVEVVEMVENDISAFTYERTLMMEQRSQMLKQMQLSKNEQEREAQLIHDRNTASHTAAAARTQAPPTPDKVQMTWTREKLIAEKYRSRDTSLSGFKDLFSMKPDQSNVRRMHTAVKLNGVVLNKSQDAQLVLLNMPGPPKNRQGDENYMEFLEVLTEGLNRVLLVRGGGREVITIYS
Description: FLIPR TI Flux assay. HEK-293 cells were washed with HBSS, and then incubated with loading buffer containing TI sensitive fluorescent dye (https://www.moleculardevices.com), 20 μM bumetanide 20 μM ouabain and 2.5 mM probenecid for 1 h at room temperature (RT) under control conditions or with drugs in the dark using a FlexStation 3 microplate reader (Molecular Devices) and imaged […] for 30 min. Stimulus buffer was added containing 5 mM K^+/0.5 mM Tl^+ and cells were imaged every 1.5 over a 190 second time course The initial rate Tl^+ uptake (Relative Fluorescence Units (RFU) per second) was determined following addition of the stimulus buffer as outlined previously (Conway et at, 2017, supra) (Lee et at, 2022, supra).
Several studies have shown that the activity and plasma membrane accumulation of KCC2 is potentiated via phosphorylation of S940, a process mediated by the activity of protein kinase C and protein phosphatase 1 (Lee et al., 2011, supra; Lee et al., J Biol Chem 282, 29777-29784 (2007); Moore et al., Proc. Natl. Acad. Sci. U.S.A. 115, 10166-10171 (2018); Moore et al., Trends Neurosci. 40, 555-571 (2017); Silayeva et al., Proc. Natl. Acad. Sci. U.S.A. 112, 3523-3528 (2015)). […] Compared to KCC2, effects on KCC3, KCC4, and NKCC1 were only seen at concentrations more than 35-fold that of KCC2 (>100 μM) (FIG. 1G).

[2] = system: brain slices; experiment: In vitro seizure assay, brain slices in 0-Mg ACSF, field recording in entorhinal cortex; set-up: species or system mice; details: Compound A 1 μM
Text: In vitro seizure assays. […] Slices were then transferred to a Warner Instruments recording chamber and electrodes of 0.5-1 mohm were inserted into layer IIII of the medial entorhinal cortex, several cell layers deep. […] The field recordings were then employed to monitor the development of seizure-like events (SLEs) and their transition to late recurrent discharges (LRDs) which are believed to be analogous to the development of status epilepticus (SE) (Kelley et al., 2016, supra; Moore et al., 2018, supra).

C[C@@H]1CN(c2nc3c(c(Nc4ccc(C5CCCCC5)cc4)n2)COC3)CCO1 [Compound A, (R)—N-(4-cyclohexylphenyl)-2-(2-methylmorpholino)-5,7-dihydrofuro[3,4-d]pyrimidin-4-amine]
pEC50 [1]: < 4.00
time to first seizure-like event (SLE) ([2]; vehicle=10.5±2.6): 11.3 ± 3.3 min
time to late recurrent discharges (LRDs) ([2]; vehicle=12.4±4.1): 28.4 ± 6.4 min
